One data set relates to murine VSMC migration. Briefly: VSMC migration, modified Boyden chamber. Format: cell-based, mouse. The conditions noted are these: leptin 6 nM. How it is done:
Migration of VSMCs: Migration was measured using a modified Boyden chamber as previously described (Grinspoon S, et al., J Clin Endocrinol Metab, 1996, 81(11):3861-3). The lower chambers contained PDGF (10 ng/mL), insulin (200 nmol/L), or 0.2% BSA (negative control) in DMEM. 2×10^5 cells were loaded into the top chamber. After 6 h, non-migrating cells were scraped from the upper surface of the filter, and the lower surface of the filter was stained with HEMA 3 Stain Set (Fisher Diagnostics, Middletown, Va.). The number of migrated VSMCs was determined by counting 4 fields at 200× magnification, of constant area per well. Values are expressed as the percentage of cells migrating in response to a chemo-attractant after subtracting the negative control. Experiments were performed thrice in triplicate wells.
FIG. 5 is a graph that depicts inhibition of migration of VSMCs toward insulin by rapamycin. […]
Primary VSMC were isolated from aortic explants of WT, ob/ob, or db/db mice (46). VSMC proliferation was determined using the Cell Titre Aqueous One Solution Proliferation Assay (Promega, Madison, Wis.). Migration to PDGF-BB was assessed in a modified Boyden chamber assay (47).

For a further data set, the system named is Akt phosphorylation. Briefly: Immunoblot of Akt phosphorylation in VSMC. The data set is classed as cell-based, mouse. How it is done: (§1) Western blot analysis: The cells were plated in a 100-mm culture dish in DMEM supplemented with 20% FBS for 24 h at 37° C., followed by serum starvation for 48 h. Cells were then treated with different reagents for 30 min. Cells were subsequently lysed on ice for 30 min in RIPA buffer [150 mM NaCl, 100 mM Tris (pH 8.0), 1% Triton X-100, 1% deoxycholic acid, 0.1% SDS, 5 mM EDTA, and 10 mM NaF] supplemented with 1 mM sodium vanadate, 2 mM leupeptin, 2 mM aprotinin, 1 mM phenylmethylsulfonyl fluoride (PMSF), 1 mM DTT, and 2 mM pepstatin A. After centrifugation at 14,000 rpm for 30 min, the supernatant was harvested as the total cellular protein extract, and stored at −70° C. The protein concentration was determined using Bio-Rad protein assay reagent (Richmond, Calif.). The total cellular protein extracts were separated by SDS-polyacrylamide gel electrophoresis (SDS-PAGE) and transferred to nitrocellulose membrane in 20 mM Tris-HCl (pH 8.0) containing 150 mM glycine and 20% (v/v) methanol.
Membranes were blocked with 5% nonfat dried milk in PBS containing 0.05% Tween 20 and incubated with antibodies against phospho-(Thr^202/Tyr^204) p42/p44^MAPK and p42/p44^MAPK, phospho-Akt([…]) and anti-Akt, p70^S6K, 4EBP-1. Blots were washed three times in PBS buffer, followed by incubation with the appropriate HRP-linked IgG. The specific proteins in the blots were visualized using an enhanced chemiluminescence reagent (NEN, Boston, Mass.).
(§2) VSMC were plated on 100-mm dishes, serum starved for 72 h in DMEM containing 0.1% FBS, and stimulated with 0.6 or 6 nM (10 or 100 ng/ml) leptin. Extracts were prepared by brief sonication in HKM buffer [40 mM HEPES-KOH (pH 7.6), 7.5 mM MgCl2, 0.5 mM DTT] or, in the case of Akt phosphorylation studies, by lysing cells on ice for 30 min in RIPA buffer. 70 μg of protein per sample were subjected to immunoblotting by standards protocols. Imaging and densitometry were performed on an Odyssey infrared system (Li-Cor, Lincoln, Neb.).

Data set [1] has as its system p70S6K and 4E-BP1 phosphorylation (mTOR substrates). Briefly: Immunoblot of p70S6K and 4E-BP1 phosphorylation in VSMC. Format: cell-based, mouse. How it is done:
as §1
Blots were washed three times in PBS buffer, followed by incubation with the appropriate HRP-linked IgG. The specific proteins in the blots were visualized using an enhanced chemiluminescence reagent (NEN, Boston, Mass.).
Starved murine VSMCs were incubated for 20 min with leptin (100 ng/ml) or 10% FBS, in the absence or presence of rapamycin (100 nmol/L).
as §2

The conditions of data set [2]: mouse, in vivo. From the text: Animal Models and Drug Treatments. Wild type C57BL/6J background mice and mice deficient for leptin (C57BL/6J-Lepob; ob/ob) or the leptin receptor (C57BL/6J-m+/+Lepdb; db/db) were purchased from Charles Jackson Laboratories, Maine. Mice were obtained at ages 6-8 weeks old and average weight 15 g. Animals were fed standard rodent chow and tap water ad libitum. Procedures and animal care were approved by the Institutional Animal Care and Use Committee. Mice were subjected to femoral artery wire injury or sham injury described below 24 hr prior to starting pharmacological treatments. Sirolimus was administered by intraperitoneal injection once per day for 14 days as a suspension in 0.2% sodium carboxymethyl cellulose and 0.25% polysorbate-80; duplicate experiments were accomplished with 0.5% DMSO. […] Plasma leptin levels were measured at baseline, 3, 6, and 10 hr after leptin injection using an ELISA assay (R&D). […]
For leptin measurements, plasma was obtained by drawing 100 μL of retro-orbital whole blood into a heparinized tube and removing cells by centrifugation at 20,000 m/s^2 for 5 min. Plasma leptin levels were measured at baseline, 3, 6, and 10 h after leptin injection in WT mice or at baseline in ob/ob and db/db mice using the mouse leptin TiterZyme EIA kit (Assay Designs, Ann Arbor, Mich.).

Here are results for one substance from US20090274739A1, “METHODS AND COMPOSITIONS FOR TREATING NEOINTIMAL HYPERPLASIA” (THE TRUSTEES OF COLUMBIA UNIVERSITY IN THE CITY OF NEW YORK, priority 2006, published 2009).

As to “Leptin: recombinant leptin; hormone derived from adipose tissue, encoded by the Ob gene”, the “PDGF-induced migration of VSMC” value in the data set with murine VSMC migration (WT VSMC) was “enhanced”. The “PDGF-induced migration of VSMC” value with murine VSMC migration (db/db VSMC) is listed as “not”. Further, the “phosphorylation of Akt (on serine 473)” value with Akt phosphorylation (Example 1, leptin 10 ng/mL) is “stimulated the phosphorylation”. In the data set with Akt phosphorylation (Example 2, leptin 100 ng/ml, decreasing thereafter at 45 min), the “time of maximum Akt phosphorylation” value was 10 min. Moreover, in the data set with Akt phosphorylation (Example 5, leptin 6 nM), the “Thr-308 phosphorylation of Akt” value was “stimulated” and the “phosphorylation of Ser-473 of Akt” value is “stimulated the phosphorylation”. The “phosphorylation of S6K and 4EBP-1” value in data set [1] (Example 1, leptin 10 ng/mL, data not shown) was “stimulated the phosphorylation”. Besides, the “phosphorylation of p70S6K and 4E-BP1” value in data set [1] (Example 2, leptin 100 ng/ml) is “up-phosphorylated”. In data set [1] (Example 5, leptin 0.6 nM, data not shown), the S6K phosphorylation result is reported as “stimulated S6K phosphorylation, albeit less robustly”. For the same substance, in data set [1] (Example 5, leptin 6 nM), the “phosphorylation of S6K” value is listed as “stimulated the phosphorylation”. Besides, in data set [2], the “leptin level 3 h after injection relative to untreated WT mice” value is recorded as roughly 20 times and the “leptin level 3 hr after injection relative to untreated WT mice” value is listed as 15 times.
